Assay results taken from patent US20250313879A1, “Fluorescent Probe for Detecting Peptide Bond Hydrolase” (The University of Tokyo, priority 2022, published 2025).
In brackets after ≈: the same amount, converted by molar mass.

How the values were obtained:
[1] = test system: dipeptidyl peptidase; test: Signal/noise ratio of enzymolysate in cuvette; type: biochemical; conditions: 10 μM probe, 17 ng/mL dipeptidyl peptidase, 25° C. 9 hours, @527 nm
Experimental: (§1) For two types of compounds Glu-sSiR (PB206/Example 12) and GP-sHMRG (PB109/Example 7), the signal/noise ratios of the enzymolysates before and after the enzyme reaction in the cuvette and the microdevice were each measured as follows. In the following experiments, the composition of the assay buffer is 100 mM HEPES-NaOH (pH 7.4), 1 mM MgCl2, 1 mM CaCl2), […].
GP-sHMRG was diluted with an assay buffer so as to be 10 μM, then added to a quartz cuvette, and the fluorescence spectrum before the enzyme reaction was measured with a fluorometer (excitation wavelength: 500 nm). Thereafter, dipeptidyl peptidase was added so that the concentration in the solution was 17 ng/mL, the solution was incubated at 25° C. for 9 hours, and then the fluorescence spectrum was measured. The fluorescence spectra before and after the enzyme reaction were compared, the ratio of the values at a wavelength at which the fluorescence intensity was maximized was calculated as the signal/noise ratio of the enzymolysate, the ratio was 481 times (@527 nm) (see FIG. 7B).

[2] = Solubility in sealing oil (hexadecane); type: physicochemical; conditions: oil or lipid, kinetic from dmso stock, room temperature (25° C.), three tests, average value±standard deviation
Experimental: That is, 1 μL of a 10 mM DMSO solution of the test compound was added with respect to 100 μL of hexadecane as sealing oil, and the mixture was sonicated and suspended at room temperature (25° C.) for 1 minute. Thereafter, the solution was centrifuged for 30 seconds, 50 μL of the supernatant was collected and mixed with 100 μL of methanol, and a compound dissolved in hexadecane was extracted. Thereafter, the methanol solution from which the compound was extracted was analyzed by ultra performance liquid chromatography (UPLC) (eluent: A/B=95/5>5/95, A: 0.1% formic acid-containing 100% H2O, B: 0.1% formic acid-containing 100% CH3CN), and the concentration of the compound in the methanol solution was calculated from the peak area. In the calculation of the solution concentration using the UPLC peak area, solutions having a plurality of concentrations were prepared and measured for each compound, then a calibration curve was prepared (FIG. 5), and the calculation was performed according to the calibration curve.

[3] = test system: peptidase activity in human plasma sample; test: Enzyme activity assay in microdevice with human plasma, peptidase probes; type: biochemical; conditions: 50 μM probe, human plasma 5,000 fold dilution, 25° C. for 2 hours
Experimental: (§2) • 1. GP-sHMRG as a fluorescent probe for detecting peptidase activity was diluted with an assay buffer to 100 μM. The composition of the assay buffer is 100 mM HEPES-NaOH (pH 7.4), 1 mM MgCl2, 1 mM CaCl2, 1 mM DTT, 3 mM Triton X-100. • 2. Next, a human plasma sample was diluted by 2,500 times with the above assay buffer, and mixed in an equal amount with the diluted solution of the probe. At this time, the final concentrations of both are 50 μM for GP-sHMRG and 5,000 fold dilution for the human plasma sample. • 3. The mixed solution of both was then added to a microdevice, followed by the addition of sealing oil to enclose the solution in each well. • 4. The microdevice in which the solution was enclosed was incubated at 25° C. for 2 hours, and then the fluorescence intensity of each well was measured with a fluorescence microscope.
as §2, with “1. Ac-Ala-sHMRG” for “1. GP-sHMRG”, “by 250” for “by 2,500”, “for Ac-Ala-sHMRG” for “for GP-sHMRG”, “and 500” for “and 5,000”, “at 37°” for “at 25°”, “for 4” for “for 2”
• 1. Ac-GP-sSiR as a fluorescent probe for detecting peptidase activity was diluted with an assay buffer to 100 μM. The composition of the assay buffer is 100 mM HEPES-NaOH (pH 7.4), 1 mM MgCl2, 1 mM CaCl2, 1 mM DTT, 3 mM Triton X-100. • 2. […] The microdevice in which the solution was enclosed was incubated at 37° C. for 2 hours, and then the fluorescence intensity of each well was measured with a fluorescence microscope.

[4] = target: T1, DPP4 (Homo sapiens, UniProt P27487); test: Diagnostic experiment of pancreatic cancer utilizing single-molecule enzyme activity of DPP4; type: biochemical
T1 construct: from tissue; host or cells: human plasma of pancreatic cancer patients and healthy subjects
T1 sequence (P27487 whole entry): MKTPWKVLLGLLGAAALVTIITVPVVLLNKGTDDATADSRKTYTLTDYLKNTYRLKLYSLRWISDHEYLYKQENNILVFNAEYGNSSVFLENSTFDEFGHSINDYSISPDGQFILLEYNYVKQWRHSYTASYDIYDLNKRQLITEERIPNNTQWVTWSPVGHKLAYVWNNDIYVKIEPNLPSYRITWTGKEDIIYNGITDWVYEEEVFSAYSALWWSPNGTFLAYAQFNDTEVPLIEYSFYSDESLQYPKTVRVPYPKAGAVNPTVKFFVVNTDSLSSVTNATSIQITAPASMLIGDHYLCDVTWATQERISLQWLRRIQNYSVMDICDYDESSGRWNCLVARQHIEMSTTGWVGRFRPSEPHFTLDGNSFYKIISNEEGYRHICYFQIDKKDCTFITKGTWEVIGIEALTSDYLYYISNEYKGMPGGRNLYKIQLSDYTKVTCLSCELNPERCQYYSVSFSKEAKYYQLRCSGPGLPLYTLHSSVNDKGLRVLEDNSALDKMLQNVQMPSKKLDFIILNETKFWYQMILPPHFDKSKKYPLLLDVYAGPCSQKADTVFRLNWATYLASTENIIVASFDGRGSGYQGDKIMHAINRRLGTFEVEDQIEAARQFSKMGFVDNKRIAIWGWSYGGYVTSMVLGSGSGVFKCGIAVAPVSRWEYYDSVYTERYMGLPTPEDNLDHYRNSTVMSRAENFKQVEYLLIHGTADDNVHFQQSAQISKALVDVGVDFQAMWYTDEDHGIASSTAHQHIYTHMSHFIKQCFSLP
Experimental: In order to detect the single-molecule enzyme activity of DPP4, an experiment to verify the availability of the probe GP-sHMRG to which Gly-Pro is bonded as a reaction point to detect a pancreatic cancer biomarker was performed in the following procedures. • 1. GP-sHMRG as a DPP4 detecting probe was diluted with an assay buffer to 100 μM. The composition of the assay buffer is 100 mM HEPES-NaOH (pH 7.4), 1 mM MgCl2, 1 mM CaCl2), 1 mM DTT, 3 mM Triton X-100. • 2. Next, human plasma samples collected from 30 patients with pancreatic cancer and 30 healthy subjects were each diluted by 2,500 times with the above assay buffer, and mixed in an equal amount with the diluted solution of GP-sHMRG. At this time, the final concentrations of both are 50 μM for the GP-sHMRG probe and 5,000 fold dilution for the human plasma sample. • 3. The mixed solution of both was then added to a microdevice, followed by the addition of sealing oil to enclose the solution in each well. • 4. The microdevice in which the solution was enclosed was incubated at 25° C. for 2 hours, and then the fluorescence intensity of each well was measured with a fluorescence microscope. […] The histogram created based on the detected fluorescence intensity of each well is approximated to a curve including two normal distributions.
Specifically, in this example, an ROC curve for determination based on the enzyme activity of DPP4 determined based on the proportion of the high activity group is created, and when a threshold is subtracted at the time when the proportion of the high activity group is 55%, the sensitivity is 37% and the specificity is 97% (the right view of FIG. 4). It is possible to determine pancreatic cancer by such an ROC curve.

[5] = test system: dipeptidyl peptidase; test: Signal/noise ratio of enzymolysate in microdevice; type: biochemical; conditions: 30 μM probe, 0.2 ng/mL dipeptidyl peptidase, 25° C. 2 hours
Experimental: as §1
For GP-sHMRG, three kinds of solutions of (iv) only an assay buffer, (v) 30 μM of GP-sHMRG, and (vi) 30 μM of GP-sHMRG and 0.2 ng/mL of dipeptidyl peptidase were prepared, and each solution was added to a microdevice, followed by the addition of sealing oil to enclose the solution in each well. The microdevice in which the solution was enclosed was incubated at 25° C. for 2 hours, and then the fluorescence intensity of each well was measured with a fluorescence microscope. When a difference between the average values of the fluorescence intensities of the respective wells in (v) and (iv) was defined as noise, a difference between the average value of the fluorescence intensities of the wells in which the enzyme was encapsulated in (vi) and the average value of the fluorescence intensities of the respective wells in (iv) was defined as a signal, and a ratio of these values was calculated as the signal/noise ratio of the enzymolysate, the ratio was 287 times (see FIG. 8, panel B). […]

[6] = threshold: proportion of the high activity group is 55%, pancreatic cancer vs healthy

## NCC(=O)N1CCCC1C(=O)Nc1ccc2c(c1)Oc1cc(N)ccc1C21OCc2cc(S(=O)(=O)O)ccc21 (stereo not shown) [GP-sHMRG]
[1]
  signal/noise ratio of the enzymolysate: 481 times
[2]
  solubility at 1 min: 0.27 ± 0.026 µM (≈ 0.149 µg/mL)
[3]
  fluorescence intensity of wells in which the reacting enzyme was enclosed: increase in fluorescence intensity was observed
[4]; patients with pancreatic cancer compared with healthy subjects, 50 μM probe, plasma 5,000 fold dilution, 25° C. 2 hours
  ratio of the high activity group to the total of high and low activity groups: significant increase
[4]; [6]
  sensitivity (ROC curve, DPP4 activity): 37%
  specificity (ROC curve, DPP4 activity): 97%
[5]
  signal/noise ratio of the enzymolysate: 287 times
